From US5587402A, “Regression of mammalian leukemia cell tumors” (priority 1995, dated 1996)

How the values were obtained:
[1] = system: isoprenylation of 21-26 kDa proteins in M600B cells; assay: Protein isoprenylation in M600B human mammary epithelial cells; format: cell-based
[2] = system: p210 transformed FDC-P1 cells (F-p210.1); assay: Cell cycle distribution of p210-transformed FDC-P1 cells; format: cell-based, murine; settings: for Cell cycle distribution (% > GO /G1): untreated control 53; for arrest at the G0/G1 stage: 500 μM
Experimental: Table 3 tabulates the effect of P-OH on cell cycle distribution of nontransformed and p210 transformed FDC-P1 cells.
^1 Cells were plated at 2.5 × 10^5 per ml in duplicate well
of a 24well plate in the presence of 10% WEHI3-conditioned media as a
source of IL3 and with the indicated concentration of P--OH. After 24
hours, the cells were fixed in ethanol, permeabilized and stained with
propidium iodide, then analyzed for DNA content by flow cytometry.
^2 FDCP1 = nontransformed cells, Fp210.1 = 210transformed FDCP1 cells

[3] = system: bcr/abl-induced leukemia in mice; assay: bcr/abl-induced leukemia in mice fed perillyl alcohol diet; format: in vivo, mouse; settings: diet containing 2% perillyl alcohol
Excerpt: Experiments were done in which the non-malignant mouse bone marrow cell line, FDC-P1, was transformed with a retrovirus engineered to express the p210 bcr/abl oncogene. As described above, the bcr/abl oncogene plays a major role in the development of human Philadelphia chromosome (Ph) positive leukemias. Therefore, this mouse system represents a model of Ph^+ human leukemia. Injection of syngeneic animals with the bcr/abl transformed FDC-P1 cells induces lethal hematopoietic malignancy in which all animals had died within 30 days post-injection (absent perillyl alcohol).
Animals were fed either a control diet or a diet containing 2% perillyl alcohol and were challenged with either 3×10^5 or 3×10^6 bcr/abl-transformed cells. All animals on the control diet died by day 26.

[4] = system: p210-transformed FDC-P1 cells; assay: Proliferation of p210 bcr/abl-transformed FDC-P1 myeloid cells; format: cell-based, murine
Experimental: (The p210 bcr/abl oncogene is carried on a helper-free retrovirus referred to as "p210.") FDC-P1 myeloid cells are an immature cell line from myeloid lineage derived from mouse bone marrow (Dexter, TM, J. Exp. Med. 152: 1036-1047, 1980).

[5] = Pharmacologic analysis of serum concentration in rats; format: in vivo; settings: rats fed 2% perillyl alcohol
Excerpt: In light of these observations, and our belief that p21^ras may be a target for perillyl alcohol activity in bcr/abl-transformed cells, it may be relevant that cellular ras activity is required for proliferating cells to pass through G1 (Dobrowski, et al., Mol. Cell Biol. 14: 5441-49, 1994).

[6] = system: isoprenylation of 21-26 kDa proteins in HT29 cells; assay: Protein isoprenylation in HT29 cells; format: cell-based; settings: Homo sapiens, HT-29; 1 mM; read-out: decrease of isoprenylation of 21-26 kDa proteins
Experimental: "Isoprenylation" is the addition of a multiple of the 5 carbon isoprene unit to a protein. Our experiments in isoprenylation are reported at Crowell, et al. 1991, J. Biol. Chem. 266: 17679-17685. To test whether a specific monoterpene affects isoprenylation of proteins in cells, cell extracts were incubated with a radioactive isoprene precursor and 0-5 mM of the test monoterpene and then subjected to SDS-PAGE. Because they carried a radioactive label, isoprenylated proteins were visualized by fluorography. As a control, cells were incubated without the monoterpene.
Cells were harvested after trypsin treatment, washed twice with phosphate-buffered saline, suspended in electrophoresis sample buffer (Laemmli, U.K., 1970, Nature 227: 680-685), and either analyzed immediately or stored at -20° C. Whole cell extracts were analyzed by SDS-PAGE on 16-cm×18-cm×0.75-mm gels by the method of Laemmli (supra). The acrylamide concentrations were 5% for the stacking gel and 12% for the separating gel. […] Some fluorograms were analyzed further by densitometry. Where indicated, gels were sliced, dissolved at 50° C. for 3 hours in 0.5 ml of water +0.5 ml of Solvable (Amersham), and then analyzed by scintillation spectrometry in 10 ml of Atomlight (Amersham) mixture. Protein content was measured by the method of Lowry, et al. (1951, J. Biol. Chem. 193: 265-275). […]

For C=C(C)[C@@H]1CC=C(CO)CC1 [perillyl alcohol], the “isoprenylation of 21-26 kDa proteins” value ([1]; 3 mM, FIG. 2) was “inhibited significantly”, the inhibition of isoprenylation ([1]; all cell types examined) was “inhibition of isoprenylation” and the “Cell cycle distribution (% > GO /G1)” value ([2]; 100 μM P--OH, 24 hours) was 53%. For the same compound, the apoptosis ([2]; 500 μM P--OH, 24 hours) was “Significant apoptosis”, the “Cell cycle distribution (% > GO /G1)” value ([2]; 500 μM P--OH, 24 hours) was 16% and the “arrest at the G0/G1 stage” value ([2]; 24 hours) was “almost completely arrested at the G0 /G1 stage”. The “arrest at the G0/G1 stage” value ([2]; 24 hours, listed as P--OH) was “entirely in the G0 /G1 stage of the cell cycle”, the morphological changes ([2]; up to 500 μM) was “morphological changes suggestive of apoptotic cell death” and the “animals surviving longer than control animals” value ([3]; 3×10^5 or 3×10^6 cells, controls all died by day 26) was “about 20%”. For the same compound, the diet acceptance ([3]; most mice) was “most mice resisted the perillyl alcohol diet”, the “growth inhibition, transformed versus nontransformed cells” value ([4]; 100-800 μM, FIG. 9B) was “significantly more inhibitory for the growth of p210-transformed FDC-P1 cells compared to nontransformed FDC-P1 cells” and the “growth-inhibitory curve with added IL-3” value ([4]; IL-3 added) was “significantly shifted upward”. For the same compound, the inhibition at 400 µM ([4]; Mus musculus, FDC-P1, read-out: inhibition of growth) was > 80%, the “reversion of autonomously growing malignant cells” value ([4]; conclusion from in vitro results) was “reverts autonomously growing malignant cells to a factor-dependent, apoptosis-sensitive state” and the “serum concentration relative to the in vitro effective concentration range” value [5] was “within the effective concentration range observed in these in vitro experiments”. For the same compound, the inhibition at 1000 µM [6] was 40%.
